This passage reports IC50 results from patent EP0536208B1, “1,2-DIHYDRO-3H-DIBENZISOQUINOLINE-1,3-DIONE ANTICANCER AGENTS” (RESEARCH CORPORATION TECHNOLOGIES, INC., priority 1990, dated 1992).

In brackets after ≈: the same amount, converted by molar mass. Like-named read-outs stand apart in the source and are kept apart here. Bounds are passed on as bounds.

One assay deals with SW80p105. The assay is described as follows: Activity against human colon tumor cells (MTT assay, 3 day drug exposure). Format: cell-based. The note with it: cells plated 24 hr. prior to drug addition, read-out: Concentration for 50% inhibition of colony formation for human colon tumors. On the procedure:
(§1) For example, the compounds of the present invention were evaluated for cytotoxic activities in cloned human colon carcinomas. The clonogenic assays were conducted in accordance with the procedure described hereinbelow: 1) Colony Forming Assays in Soft Agar: Fresh human or murine tumors are disaggregated into single cell suspensions using mechanical, hypoosmotic and/or enzymatic (trypsin) methods. The single cells (about 5 X 10^4-10^5) are plated in 35 mm plastic petri dishes onto a 1 ml "feeder layer" of 0.3% agar dissolved in growth medium containing 5-10% vol/vol of heat-inactivated fetal bovine serum, molten 0.3% agar and the antibiotics penicillin (100 u/mL) and streptomycin (100 ug/mL). Drug exposures can be performed for one hour or continuously (drugs added to final plating medium). Tumor cell colonies > 60 uM in size are counted by automated image analysis after 10-20 days of incubation in a humidified, 5-10% CO2-gassed environment maintained at 37°C. Inhibition of colony formation is calculated based on comparisons to control (untreated) plates wherein the growth of hundreds of colonies/plate is typical. (Salmon SE, et al., N Engl J Med 298(24):1321-1327, 1978).
(§2) Compounds of the present invention were tested for their in vitro activity in tumor cells sensitive and resistant to standard anti-cancer agents. The tumor cell lines used in this protocol are 8226 human Myeloma^1; 8226/Dox-40^2, L-1210/Murine Leukemia, multidrug resistant L-210/^3, 2780 Human Ovarian Cancer and 2780/AD^4. Each of these resistant cell lines is known as a multidrug resistant or "MDR" cell line. These cell lines produce a 170,00 molecular weight membrane protein termed the P-glycoprotein which acts as an active drug efflux pump. Thus, once a cell produces the P-glycoprotein, it has the capability of pumping out of the cell a large variety of unrelated natural products. […] The protocol for measuring the effectiveness of compounds of the present invention is as follows: 2) In Vitro Tumor Cell Viability Assays Using MTT-Dye: Tumors are processed into a single cell suspension as described above. The cells are plated at a concentration of 3-5 X 10^4/1 mL well into plastic 96-well plates. […] Afterwards the medium containing the drug is removed, the cells are "washed" by centrifugation in fresh medium or phosphate-buffered saline (pH 7.4). A tetrazolium dye is then added (3,4,5-dimethylthiazol-2-yl)-2,5-diphenyl tetrazolium bromide (MTT). This dye forms a colored formazan product upon activation by mitochondrial reductases in viable cells. Typically, the formazan product is solubilized in acid-propanol or DMSO. The intensity of the color is proportional to viable cell numbers and this is quantitated by spectrophotometric absorbance ([…]) on a micro ELISA plate reader. Test results are calibrated in % control absorbance from untreated tumor cells (Mossman T: J Immunol Meth 65:55-63, 1983). Using the above procedure, Compound 1 was tested for its cytotoxic activity with respect to various tumor cell lines.

A further assay deals with HT29p30. Described as above. Type of assay: cell-based. The note with it: cells plated 24 hr. prior to drug addition, read-out: Concentration for 50% inhibition of colony formation for human colon tumors. On the procedure: as §1, §2
A further assay deals with LOVOp32. Described as above. Format: cell-based. The note with it: cells plated 24 hr. prior to drug addition, read-out: Concentration for 50% inhibition of colony formation for human colon tumors. On the procedure: as §1
(§3) Compounds of the present invention were tested for their in vitro activity in tumor cells sensitive and resistant to standard anti-cancer agents. The tumor cell lines used in this protocol are 8226 human Myeloma^1; 8226/Dox-40^2, L-1210/Murine Leukemia, multidrug resistant L-210/^3, 2780 Human Ovarian Cancer and 2780/AD^4. Each of these resistant cell lines is known as a multidrug resistant or "MDR" cell line. These cell lines produce a 170,00 molecular weight membrane protein termed the P-glycoprotein which acts as an active drug efflux pump. Thus, once a cell produces the P-glycoprotein, it has the capability of pumping out of the cell a large variety of unrelated natural products. […] The protocol for measuring the effectiveness of compounds of the present invention is as follows: 2) In Vitro Tumor Cell Viability Assays Using MTT-Dye: Tumors are processed into a single cell suspension as described above. The cells are plated at a concentration of 3-5 X 10^4/1 mL well into plastic 96-well plates. Growth medium containing 5-10% (vol/vol) heat-inactivated fetal bovine serum and penicillin/streptomycin (as above) is added prior to incubation at 37°C for six days. Afterwards the medium containing the drug is removed, the cells are "washed" by centrifugation in fresh medium or phosphate-buffered saline (pH 7.4). A tetrazolium dye is then added (3,4,5-dimethylthiazol-2-yl)-2,5-diphenyl tetrazolium bromide (MTT). This dye forms a colored formazan product upon activation by mitochondrial reductases in viable cells. Typically, the formazan product is solubilized in acid-propanol or DMSO. The intensity of the color is proportional to viable cell numbers and this is quantitated by spectrophotometric absorbance ([…]) on a micro ELISA plate reader. Test results are calibrated in % control absorbance from untreated tumor cells (Mossman T: J Immunol Meth 65:55-63, 1983). Using the above procedure, Compound 1 was tested for its cytotoxic activity with respect to various tumor cell lines.

A further assay deals with 205p14. The assay is described as above. The settings on record: cells plated 24 hr. prior to drug addition, read-out: Concentration for 50% inhibition of colony formation for human colon tumors. Format: cell-based. The protocol:
as §1, §3

In another assay the test system is L-1210/Murine Leukemia. The assay is described as follows: In vitro tumor cell viability assay using MTT dye. Format: cell-based. The note with it: Mus musculus. The protocol:
as §2
Background: Formazan colour is commonly taken as a measure of viable cells.

A further assay has as its system 8226 Human Myeloma. The assay is described as follows: In vitro tumor cell viability assay using MTT dye. Type of assay: cell-based. The settings on record: Homo sapiens; 8226 Myeloma Cells Sensitive; continuous exposure, MTT dye assay; read-out: IC50 VALUES. The protocol:
as §2

The test system of another assay is 8226/DOX-40. As to the kind of experiment: In vitro tumor cell viability assay using MTT dye. Format: cell-based, Human. The note with it: Homo sapiens; 8226 Myeloma Cells Resistant; continuous exposure, MTT dye assay; read-out: IC50 VALUES. The protocol:
as §2

Another assay deals with Resistant L1210. The assay is described as follows: In vitro tumor cell viability assay using MTT dye. Type of assay: cell-based, Murine. The settings on record: Mus musculus. The protocol:
as §2

[1] abbreviates: 144 h, Sensitive L1210, six day MTT assay, continuous drug exposure, read-out: Concentration for 50% inhibition of tumor cells.
[2] abbreviates: L1210 Leukemia Cells Sensitive, continuous exposure, MTT dye assay, read-out: IC50 VALUES.
Where [3] appears, read: 144 h, Resistant L1210, six day MTT assay, continuous drug exposure, read-out: Concentration for 50% inhibition of tumor cells.
[4] abbreviates: L1210 Leukemia Cells Resistant, continuous exposure, MTT dye assay, read-out: IC50 VALUES.

On to `CN(C)CCN1C(=O)c2cccc3cc4cccc([N+](=O)[O-])c4c(c23)C1=O` [Compound 2, 2-[2-(dimethylamino)ethyl]-1,2-dihydro-11-nitro-2H-dibenz(deh)isoquinoline-1,3-dione], for which the IC50 with SW80p105 is 2500 nM; with HT29p30, 1750 nM; in the assay with LOVOp32, 3000 nM; in the assay on 205p14, 3000 nM.

As for `CN(C)CCN1C(=O)c2cccc3cc4cccc(N)c4c(c23)C1=O` [Compound 3, 11-Amino-2-[2'-(dimethylamino)ethyl]-1,2-dihydro-3H-dibenz(deh)isoquinoline-1,3-dione], the IC50 is 3100 nM with SW80p105, 3600 nM in the assay on HT29p30, 4000 nM in the assay on LOVOp32 and 2600 nM in the assay with 205p14.

In the case of `O=C1c2cccc3cc4ccccc4c(c23)C(=O)N1CCN1CCCCC1` [Compound 7, 2-[2'-(N-piperidino)ethyl]-1,2-dihydro-3H-dibenz(deh)isoquinoline-1,3-dione], the IC50 in the assay on SW80p105 came to 1000 nM; with HT29p30, 4400 nM; in the assay on LOVOp32, 750 nM; with 205p14, 10000 nM.

`O=C1c2cccc3cc4ccccc4c(c23)C(=O)N1CCN1CCCC1` [Compound 8, 2-[2'-(N-pyrrolidino)ethyl]-1,2-dihydro-3H-dibenz(deh)isoquinoline-1,3-dione]: the IC50 with SW80p105 stood at 900 nM; in the assay with HT29p30, 2600 nM; in the assay on LOVOp32, 1000 nM; in the assay on 205p14, 11700 nM.

For `CCN1CCCC(N2C(=O)c3cccc4cc5ccccc5c(c34)C2=O)C1` (stereo not shown) [Compound 9, 2-(1'-ethyl-3'piperidinyl)-1,2-dihydro-3H-dibenz(deh)isoquinoline-1,3-dione], the IC50 came out at 3000 nM in the assay with SW80p105, 11200 nM in the assay on HT29p30, 5600 nM with LOVOp32 and 17500 nM in the assay with 205p14.

In the case of `CN(C)c1ccc(N2C(=O)c3cccc4cc5ccccc5c(c34)C2=O)cc1` [Compound 10, 2-(4'-dimethylaminophenyl)-1,2-dihydro-3H-dibenz(deh)isoquinoline-1,3-dione], the IC50 in the assay on SW80p105 worked out at 750 nM; with HT29p30, 250 nM.

`CN(C)CCCN1C(=O)c2cccc3cc4ccccc4c(c23)C1=O` [Compound 11, 2-[3'-(dimethylamino)propyl]-1,2-dihydro-3H-dibenz(deh)isoquinoline-1,3-dione]: the IC50 in the assay with SW80p105 was 1300 nM; in the assay with HT29p30 it was 8300 nM; in the assay on LOVOp32, 1600 nM; in the assay with 205p14, 13500 nM.

Consider `O=C1c2cccc3cc4ccccc4c(c23)C(=O)N1CCCN(CCO)CCO` [Compound 12], for which the IC50 with SW80p105 was found to be 1300 nM; with HT29p30 it was 8300 nM; in the assay with LOVOp32, 800 nM; in the assay with 205p14, 11500 nM.

Turning to `CN(C)CCN1C(=O)c2cccc3cc4c([N+](=O)[O-])cccc4c(c23)C1=O` [Compound 13, 2-[2'-(dimethylamino)ethyl]-1,2-dihydro-8-nitro-3H-dibenz(deh)isoquinoline-1,3-dione], the IC50 came to 2.7 ng/mL (≈ 7.43 nM) in the assay on L-1210/Murine Leukemia (setting [1]); 2.5 ng/mL (≈ 6.88 nM) with L-1210/Murine Leukemia (setting [2]); 5 ng/mL (≈ 13.8 nM) with 8226 Human Myeloma; 10 ng/mL (≈ 27.5 nM) with 8226/DOX-40; 3 ng/mL (≈ 8.26 nM) in the assay on Resistant L1210 (setting [3]); 2.9 ng/mL (≈ 7.98 nM) in the assay with Resistant L1210 (setting [4]).

In the case of `CN(C)CCN1C(=O)c2cccc3cc4c(N)cccc4c(c23)C1=O` [Compound 14, 8-Amino-2-[2'-(dimethylamino)ethyl]-1,2-dihydro-3H-dibenz-(deh)isoquinoline-1,3-dione], the IC50 in the assay on L-1210/Murine Leukemia (setting [1]) is 5000 ng/mL (≈ 15000 nM); in the assay with L-1210/Murine Leukemia (setting [2]), 5000 ng/mL (≈ 15000 nM); in the assay on 8226 Human Myeloma it was > 100 ng/mL; in the assay with 8226/DOX-40 it was > 100 ng/mL; with Resistant L1210 (setting [4]), > 5000 ng/mL.

Consider `CCc1ccc2c3c(c4ccccc4cc13)C(=O)N(CCN(C)C)C2=O` [Compound 15, 2-[2'-(dimethylamino)ethyl]1,2-dihydro-6-ethyl-3H-dibenz(deh)isoquinoline-1,3-dione], for which the IC50 in the assay with L-1210/Murine Leukemia (setting [1]) and in the assay with Resistant L1210 (setting [3]) was 3.1 ng/mL (≈ 8.95 nM) each time.

With `CN(C)CCN1C(=O)c2cccc3cc4ccc(Cl)cc4c(c23)C1=O` [Compound 16, 10-Chloro-2-[2'-(dimethylamino)ethyl]-1,2-dihydro-3H-dibenz(deh)isoquinoline-1,3-dione], the IC50 came to 2.5 ng/mL (≈ 7.09 nM) in the assay with L-1210/Murine Leukemia (setting [1]) and 2 ng/mL (≈ 5.67 nM) with Resistant L1210 (setting [3]).

For the compound `CN(C)CCN1C(=O)c2cccc3c(Cl)c4ccccc4c(c23)C1=O` [Compound 17, 7-Chloro-2-[2'-(dimethylamino)ethyl]-1,2-dihydro-3H-dibenz(deh)-isoquinoline-1,3-dione], the figures for the IC50 in the assay on L-1210/Murine Leukemia (setting [1]) and in the assay on Resistant L1210 (setting [3]) were 28 ng/mL (≈ 79.4 nM) and 30 ng/mL (≈ 85 nM), respectively.

Regarding `Cc1c2ccccc2c2c3c(cccc13)C(=O)N(CCN(C)C)C2=O` [Compound 19, 2-[2'-(Dimethylamino)ethyl]-1,2-dihydro-7-methyl-3H-dibenz(deh)isoquinoline-1,3-dione], the IC50 in the assay with L-1210/Murine Leukemia (setting [1]) and with Resistant L1210 (setting [3]) was 3 ng/mL (≈ 9.03 nM) in each case.

With `COc1c2ccccc2c2c3c(cccc13)C(=O)N(CCN(C)C)C2=O` [Compound 20, 2-[2'-(Dimethylamino)ethyl]-1,2-dihydro-7-methoxy-3H-dibenz-(deh)isoquinoline-1,3-dione], the figures for the IC50 in the assay on L-1210/Murine Leukemia (setting [1]) and in the assay with Resistant L1210 (setting [3]) were 3.2 ng/mL (≈ 9.18 nM) and 2.8 ng/mL (≈ 8.04 nM), respectively.

As for `CN(C)CCN1C(=O)c2cccc3c(O)c4ccccc4c(c23)C1=O` [Compound 21, 2-[2'-(dimethylamino)ethyl]-1,2-dihydro-7-hydroxy-3H-dibenz(deh)isoquinoline-1,3-dione], the IC50 with L-1210/Murine Leukemia (setting [1]) and in the assay on Resistant L1210 (setting [3]) was 3.2 ng/mL (≈ 9.57 nM) in each case.

Consider `CNCCN1C(=O)c2cccc3cc4ccccc4c(c23)C1=O` [Compound 22, 1,2-Dihydro-2-[2'-(methylamino)ethyl]-3H-dibenz(deh)isoquinoline-1,3-dione], for which the IC50 was determined as 3.2 ng/mL (≈ 10.5 nM) in the assay on L-1210/Murine Leukemia (setting [1]) and 2.7 ng/mL (≈ 8.87 nM) in the assay with Resistant L1210 (setting [3]).
